We go through 7 compounds from patent US11980631B2, “β-lactamase inhibitors” (priority 2017, dated 2024).

One assay concerns S. maltophilia. Put plainly: microbe, parasite or virus in culture. The note with it: for MIC: Stenotrophomonas maltophilia; for MIC / MIC of the β-lactam alone (−): no inhibitor. In kind it is cell-based, Stenotrophomonas maltophilia. On the procedure: S. maltophilia clinical isolates were K279a, a well characterised isolate from Bristol, UK, or were obtained from the SENTRY antimicrobial resistance survey, as previously reported. […] All growth media were from Oxoid. Chemicals were from Sigma, unless otherwise stated.
Susceptibility to β-lactams in bacterial isolates was determined using the CLSI microtitre minimum inhibitory concentration (MIC) methodology with Muller-Hinton Broth using 96 well plates (Corning, Costar). The MIC was determined as the lowest concentration of β-lactam required to entirely suppress growth. Inhibitor concentrations were kept constant at 2 mg/L or 10 mg/L in all assays. Interpretation of susceptibility/resistance was by reference to CLSI clinical breakpoints for S. maltophilia (ceftazidime) and for Pseudomonas aeruginosa (for aztreonam and meropenem, since no S. maltophilia breakpoints are available).

Assay [1] deals with L1 β-lactamase production in S. maltophilia K279a. Put plainly: L1 β-lactamase induction by β-lactamase inhibitors (meropenem hydrolysis in cell extracts). The class given is cell-based. The note with it: 50 μg.mL^−1 inducer. On the procedure: L1 activity was measured from the cell extracts in a 96-well plate reader by determining meropenem hydrolysis (100 μM) at λ=300 nm. Protein concentration was determined by using BioRad protein assay dye reagent. Specific activity was calculated by using the extinction coefficient of 9600 AU/M/cm and a pathlength correction for the microplate ([…]). Data presented are means +/−SEM, n=3.
Cultures were grown overnight using nutrient broth and used to inoculate (1:100 dilution) 10 ml nutrient broth cultures in sealed 30 ml universal bottles. Cultures were incubated for 2 h with shaking at 37° C. before test inducers were added, or not, and culture was continued for 2 h. Cells were pelleted by centrifugation (4,000×g, 10 min) and pellets treated with 100 μL of BugBuster (Ambion), pipetting up and down a few times before rocking for 10 min at room temperature. […] Protein concentration was determined using the BioRad protein assay reagent concentrate according to the manufacturer's instructions. L1 β-lactamase activity was determined using an Omega Fluostar (BMG Biotech) using meropenem as substrate in half-area 96 well UV-translucent plates (Greiner UV-Star. Bio-one) with 200 μl of 100 μM meropenem solution in assay buffer (60 mM Na2HPO4.7H2O pH 7.0, 40 mM NaH2PO4.H2O, 10 mM KCI, 1 mM MgSO4.7H2O, 100 μM ZnCl2) plus 10 μL of cell extract. […]

Another assay deals with L2 (Stenotrophomonas maltophilia (Pseudomonas maltophilia) (Xanthomonas maltophilia), UniProt P96465). Put plainly: Inhibition of purified L2, fluorogenic substrate FC5 as reporter.
L2, sequence (P96465 36-303 limits assumed): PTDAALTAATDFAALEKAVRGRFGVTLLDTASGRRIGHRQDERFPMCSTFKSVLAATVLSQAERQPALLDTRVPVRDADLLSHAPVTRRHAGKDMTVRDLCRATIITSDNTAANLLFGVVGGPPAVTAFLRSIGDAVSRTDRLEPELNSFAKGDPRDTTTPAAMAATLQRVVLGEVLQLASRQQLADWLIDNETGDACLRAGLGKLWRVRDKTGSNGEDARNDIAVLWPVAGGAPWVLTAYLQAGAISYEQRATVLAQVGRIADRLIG
The next assay concerns the target L1 (class B3 MBL) (Stenotrophomonas maltophilia (Pseudomonas maltophilia) (Xanthomonas maltophilia), UniProt P52700). Put plainly: Steady-state hydrolysis of β-lactams by purified L1. The class given is biochemical, S. maltophilia. The text has this: (§1) As a prelude to investigation the effects of β-lactamase inhibitors, the hydrolysis of a range of candidate β-lactams in vitro by purified L1 (class B3 MBL) and L2 (class A ESBL) under steady state conditions were investigated.

A further assay addresses L2 (class A ESBL) (Stenotrophomonas maltophilia (Pseudomonas maltophilia) (Xanthomonas maltophilia), UniProt P96465). Nature of the assay: Steady-state hydrolysis of β-lactams by purified L2. The class given is biochemical, S. maltophilia.
Text: as §1

A further assay deals with BlaC (Mycobacterium tuberculosis (strain ATCC 25618 / H37Rv), UniProt P9WKD3). Put plainly: BlaC inhibition assay (FC5 hydrolysis, fluorescence). In kind it is biochemical. On the procedure:
Recombinant BlaC, with an N-terminal His-tag, was produced in E. coli BL21(DE3) cells using auto-induction medium supplemented with 50 μg mL^−1 ampicillin. Cells were grown for four hours at 37° C. before cooling to 18° C. and continuing growth overnight. Cells were harvested by centrifugation (10 min, 10000 g).
FC5 was stored as a 2.5 mM solution in assay buffer supplemented with 10% (v/v) DMSO. Fluorescence measurements were made using a PHERAstar multi-mode plate reader (BMG Labtech). All assays were carried out at 25° C. Fluorescence assays were carried out using black 96 well format half area clear® plates (Greiner Bio-One) with a final assay volume of 100 μL. FC5 hydrolysis was followed by fluorescence (λex=380 nm, λem=460 nm) corresponding to the release of the umbelliferone fluorophore. The optimum concentration of enzyme for steady-state measurements was determined by examining the rate of substrate hydrolysis at varied concentrations of enzyme, with the concentration at which the initial rate remained constant for 5-10 min being selected as an appropriate enzyme concentration. Initial rates of substrate hydrolysis were determined at varying substrate concentrations. Steady-state kinetic parameters were determined by fitting of initial rates to the Michaelis-Menten equation using GraphPad Prism 5 software.
Inhibition assays were performed by monitoring the initial rate of FC5 hydrolysis via fluorescence at a range of inhibitor concentrations. Inhibitors were stored either as solids or as 100 mM stock solutions in DMSO, these were diluted to appropriate concentrations in the assay buffer. Typically inhibition assays were carried out using black 384 well format pclear® plates (Griener Bio-One) with a final assay volume of 25 μL. Enzyme concentrations were chosen to give a linear rate of FC5 hydrolysis over the first 5 min of the assay time with an FC5 concentration of 5 μM. Components were added in the following order and volumes:
The enzyme was incubated with the inhibitor for 10 min prior to initiation of the reaction by the addition of the substrate. The residual activities were calculated using the following formula:
[formula] IC50 values were calculated by fitting of residual residual activity curves using GraphPad Prism 5 software.

In general, IC50 refers to the midpoint of a concentration-inhibition curve. Read a low IC50 as greater potency in that assay. One may read the Km as the concentration of substrate that gives half-maximal velocity. As a reminder, the kcat is the number of substrate molecules converted per active site and unit of time at saturation. What is called pIC50 is −log10 of the IC50, conventionally taken in molar units. The low end stands for a high IC50, the high end for a low IC50.

Structures are written as SMILES. “Also recorded” adds a separate entry of the source. Read-outs that look alike come from different tables or passages of the source.

L1 (class B3 MBL), sequence (P52700 whole entry, looked up): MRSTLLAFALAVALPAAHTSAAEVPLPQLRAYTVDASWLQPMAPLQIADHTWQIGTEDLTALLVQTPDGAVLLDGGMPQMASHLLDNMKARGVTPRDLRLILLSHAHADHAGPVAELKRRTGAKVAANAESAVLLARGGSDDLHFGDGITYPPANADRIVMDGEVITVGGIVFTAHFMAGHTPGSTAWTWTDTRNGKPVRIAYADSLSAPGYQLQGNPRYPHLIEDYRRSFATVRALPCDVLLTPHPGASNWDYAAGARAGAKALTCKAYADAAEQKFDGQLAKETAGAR
BlaC, sequence (P9WKD3 35-307 limits assumed): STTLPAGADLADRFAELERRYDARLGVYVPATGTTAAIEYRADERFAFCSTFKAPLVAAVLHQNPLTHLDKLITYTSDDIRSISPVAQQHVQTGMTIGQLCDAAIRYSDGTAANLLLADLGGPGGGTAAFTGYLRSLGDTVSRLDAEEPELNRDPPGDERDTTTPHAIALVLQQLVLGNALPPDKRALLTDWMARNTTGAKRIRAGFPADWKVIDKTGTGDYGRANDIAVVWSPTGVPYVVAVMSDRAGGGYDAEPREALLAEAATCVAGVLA
L2 (class A ESBL), sequence (P96465 36-303 limits assumed): as the sequence (P96465 36-303 limits assumed) above

For the compound `O=C(O)[C@H]1/C(=C/CO)O[C@@H]2CC(=O)N21` [Clavulanic acid], the “MIC of aztreonam in the presence of the β-lactamase inhibitor” value with S. maltophilia (CI-20, inhibitor at 2 mg/L) was found to be 4 µg/mL; in the assay on S. maltophilia (CI-29, inhibitor at 2 mg/L) it was 1 µg/mL; in the assay on S. maltophilia (CI-31, inhibitor at 2 mg/L), 2 µg/mL; in the assay with S. maltophilia (K279a, inhibitor at 2 mg/L) it was 1 µg/mL; in the assay on S. maltophilia (K AMI 32, inhibitor at 2 mg/L), 0.5 µg/mL; in the assay on S. maltophilia (K CAZ 10, inhibitor at 2 mg/L), 0.5 µg/mL. In the assay on S. maltophilia (K MOX 8, inhibitor at 2 mg/L), the “MIC of aztreonam in the presence of the β-lactamase inhibitor” value is 0.25 µg/mL. The “MIC of ceftazidime in the presence of the β-lactamase inhibitor” value worked out at 16 µg/mL with S. maltophilia (CI-20, inhibitor at 2 mg/L); 4 µg/mL in the assay with S. maltophilia (CI-29, inhibitor at 2 mg/L); 128 µg/mL in the assay with S. maltophilia (CI-31, inhibitor at 2 mg/L); 4 µg/mL in the assay with S. maltophilia (K279a, inhibitor at 2 mg/L); 1 µg/mL in the assay with S. maltophilia (K AMI 32, inhibitor at 2 mg/L); 8 µg/mL in the assay on S. maltophilia (K CAZ 10, inhibitor at 2 mg/L). Also, the “MIC of ceftazidime in the presence of the β-lactamase inhibitor” value in the assay on S. maltophilia (K MOX 8, inhibitor at 2 mg/L) is 1 µg/mL. Moreover, the “MIC of meropenem in the presence of the β-lactamase inhibitor” value came to 32 µg/mL with S. maltophilia (CI-20, inhibitor at 2 mg/L); 16 µg/mL in the assay on S. maltophilia (CI-29, inhibitor at 2 mg/L); 256 µg/mL in the assay with S. maltophilia (CI-31, inhibitor at 2 mg/L); 32 µg/mL in the assay with S. maltophilia (K279a, inhibitor at 2 mg/L); 8 µg/mL in the assay on S. maltophilia (K AMI 32, inhibitor at 2 mg/L); 8 µg/mL in the assay with S. maltophilia (K CAZ 10, inhibitor at 2 mg/L). The “MIC of meropenem in the presence of the β-lactamase inhibitor” value in the assay on S. maltophilia (K MOX 8, inhibitor at 2 mg/L) came to 8 µg/mL. Moreover, the “ability to potentiate β-lactams / reverse resistance (in words)” value in the assay with S. maltophilia (inhibitor at 2 mg/L, β-lactam and strain named in the value) was “does not reduce the MIC of ceftazidime against S. maltophilia K279a; also recorded: reduces the aztreonam MIC against K279a”. In assay [1], the “induction of L1 production (in words)” value is “induced L1 production”. In addition, the IC50 is 0.0223 µM against L2 (IC50, purified L2, FC5 substrate) and 0.0389 µM against L2 (pIC50, purified L2, FC5 substrate).

Take `C[C@H]1[C@H](NC(=O)/C(=N\OC(C)(C)C(=O)O)c2csc(N)n2)C(=O)N1S(=O)(=O)O` [Aztreonam]: the MIC in the assay on S. maltophilia (read-out: MIC of the β-lactam alone (−), CI-20) worked out at 128 µg/mL; with S. maltophilia (read-out: MIC of the β-lactam alone (−), CI-29) it was 128 µg/mL; with S. maltophilia (read-out: MIC of the β-lactam alone (−), CI-31), 256 µg/mL; with S. maltophilia (read-out: MIC of the β-lactam alone (−), K279a) it was 128 µg/mL; in the assay on S. maltophilia (read-out: MIC of the β-lactam alone (−), K AMI 32) it was 128 µg/mL; with S. maltophilia (read-out: MIC of the β-lactam alone (−), K CAZ 10), 256 µg/mL. Also, in the assay with S. maltophilia (read-out: MIC of the β-lactam alone (−), K MOX 8), the MIC was found to be 128 µg/mL.

On to `CC(C)(O/N=C(\C(=O)N[C@@H]1C(=O)N2C(C(=O)[O-])=C(C[n+]3ccccc3)CS[C@H]12)c1csc(N)n1)C(=O)O` [Ceftazidime], for which the Michaelis-Menten constant (Km) on L1 (class B3 MBL) stood at 260 µM; on L2 (class A ESBL) it was 548 µM. Moreover, the results for the kcat on L1 (class B3 MBL) and on L2 (class A ESBL) were 1.67 s⁻¹ and 1.88 s⁻¹, respectively. In addition, the kcat/KM at L1 (class B3 MBL) is on record as 6.4 (μM^−1 · s^−1) × 10^−3; at L2 (class A ESBL) it was 3.4 (μM^−1 · s^−1) × 10^−3. Also, the “MIC of the β-lactam alone (−)” value with S. maltophilia (CI-20) was 16 µg/mL; with S. maltophilia (CI-29) it was 8 µg/mL; with S. maltophilia (CI-31), 256 µg/mL; in the assay on S. maltophilia (K279a) it was 4 µg/mL; in the assay with S. maltophilia (K AMI 32), 2 µg/mL; in the assay with S. maltophilia (K CAZ 10) it was 64 µg/mL. Also, the “MIC of the β-lactam alone (−)” value with S. maltophilia (K MOX 8) came out at 4 µg/mL.

Consider `C[C@@H](O)[C@H]1C(=O)N2C(C(=O)O)=C(SCCN=CN)C[C@H]12` [Imipenem], for which the figures for the pIC50 on BlaC (pre-incubation time 0 min), against BlaC (pre-incubation time 10 min) and at BlaC (pre-incubation time 60 min) were 5.59 ± 0.01, 6.09 ± 0.02 and 6.45 ± 0.05, respectively.

`C[C@@H](O)[C@H]1C(=O)N2C(C(=O)O)=C([C@H]3CCCO3)S[C@H]12` [Faropenem]: the IC50 was 3.72 µM against BlaC (pre-incubation time 0 min), 2.51 µM at BlaC (pre-incubation time 10 min) and 3.55 µM against BlaC (pre-incubation time 60 min).

Turning to `C[C@]1(Cn2ccnn2)[C@H](C(=O)O)N2C(=O)C[C@H]2S1(=O)=O` [Tazobactam], the results for the concentration for half-maximal inhibition (IC50) against BlaC (pre-incubation time 0 min), against BlaC (pre-incubation time 10 min) and on BlaC (pre-incubation time 60 min) were 6.46 µM, 2.75 µM and 3.55 µM, respectively.

As to `C[C@@H](O)[C@H]1C(=O)N2C(C(=O)O)=C(S[C@@H]3CN[C@H](C(=O)N(C)C)C3)[C@H](C)[C@H]12` [Meropenem], the Km amounted to 105 µM on L1 (class B3 MBL) and 28.8 µM at L2 (class A ESBL). Also, the turnover number (kcat) at L1 (class B3 MBL) came to 23.8 s⁻¹; at L2 (class A ESBL), 0.028 s⁻¹. The kcat/KM is listed as 227 (μM^−1 · s^−1) × 10^−3 on L1 (class B3 MBL) and 0.97 (μM^−1 · s^−1) × 10^−3 at L2 (class A ESBL). Besides, the “MIC of the β-lactam alone (−)” value was determined as 64 µg/mL in the assay with S. maltophilia (CI-20); 32 µg/mL in the assay on S. maltophilia (CI-29); 256 µg/mL with S. maltophilia (CI-31); 8 µg/mL in the assay on S. maltophilia (K279a); 4 µg/mL with S. maltophilia (K AMI 32); 64 µg/mL in the assay on S. maltophilia (K CAZ 10). Further, in the assay with S. maltophilia (K MOX 8), the “MIC of the β-lactam alone (−)” value turned out to be 4 µg/mL. Also, the negative logarithm of the IC50 (pIC50) is recorded as 5.72 ± 0.06 on BlaC (pre-incubation time 0 min), 6.41 ± 0.05 against BlaC (pre-incubation time 10 min) and 7.16 ± 0.03 against BlaC (pre-incubation time 60 min).
